Experimental findings from patent US20210106566A1, “PHARMACEUTICAL COMPOSITION FOR TREATING AND/OR PREVENTING PERIPHERAL NEUROPATHY OR SPINAL CORD INJURY” (NATIONAL UNIVERSITY CORPORATION NAGOYA UNIVERSITY, priority 2015, published 2021) are described below.

Experiment [1] relates to severely crushed spinal cord model mice. Nature of the experiment: Severely crushed spinal cord model mice: motor function with BMS score. The note with it: for BMS score: 30 mg/kg/day intragastrically. The class given is in vivo, mouse. The source says:
Female C57BL/6J mice (8 weeks old; 19.5-22.0 g) were purchased from Charles River. The female C57BL/6J mice were anesthetized by intraperitoneally administering pentobarbital sodium and underwent back incision under a sterile condition to perform laminectomy at the 10th thoracic vertebra. The spinal cord was crushed at 100 kdyn using a tip with a diameter of 1.35 mm on IH Spinal Cord Impactor. After the occurrence of hematoma in the spinal cord was confirmed under a microscope, the wound was closed and 1 ml of physiological saline was subcutaneously injected into the posterior neck region to prevent dehydration. The mice with spinal cord injury were separated into two groups in a blinded fashion. Zonisamide was diluted with olive oil (solvent) to 3 mg/mL and intragastrically administered to mice in one group at 30 mg/kg/day using a disposable probe needle (flexible type, Fuchigami) for consecutive days from the day of surgery. Mice in the other group received only the solvent using a similar procedure for consecutive days. One day after surgery, motor function of mice in both groups was assessed using BMS score (Basso mouse scale; Li et. al. J Neurosurg Spine 4: 165-173 (2006)) in a blinded fashion to select the mice with BMS score of 1 or lower and consider them as severely crushed spinal cord model mice. The mice received 200 mL of water containing trimethoprim (16 mg)/sulfamethoxazole (80 mg) from a feeder to prevent infection for 3 days after surgery. BMS score is scored by rating ankle movement, weight support, stepping, coordinated motion of forelimbs and hindlimbs (coordination), hindlimb position in walking, trunk stability, and tail position, and ranges from 0 to 9; score 0 corresponds to complete paralysis of hindlimb and score 9 corresponds to normal motion; more specifically, BMS score is described as follows: 0: No ankle movement. 1: Slight ankle movement (less than 50% of the range of motion). 2: Extensive ankle movement (equal to and greater than 50% of the range of motion). 3: Plantar placing of the paw or occasional dorsal stepping. 4: Occasional planter stepping with weight support (equal to and less than 50% of forward movement). 5: Frequent or consistent planter stepping (equal to and greater than 50% of forward movement), no coordination of limbs; or frequent or consistent planter stepping, some coordination of limbs, hindlimb paws rotated at initial contact and lift off. 6: Some coordination of limbs, hindlimb paws parallel at initial contact and rotated at lift off; or mostly coordinated, hindlimb paws rotated at initial contact and lift off. […] BMS scores were measured at days 1, 3, 7, 14, 21, and 28 after surgery in a blinded fashion (FIG. 14).

The test system of experiment [2] is Bdnf, Ngf, Ntf4, Ntrk1, Ntrk2, Map2, Mapt, Gap43. As to the kind of experiment: Mouse sciatic nerve autologous transplantation model: mRNA in sciatic nerve segment. It counts as in vivo. The note with it: sciatic nerve segment distal to the distal transection site, 8 weeks after surgery. From the text: Adult male C57BL/6J mice (8 weeks old; 19.5-22.0 g) were purchased from Charles River. The mice were anesthetized with isoflurane and underwent gluteal muscle incision under a sterile condition to expose the sciatic nerve in the left leg. The sciatic nerve was cut at the following two sites (1) and (2): (1) the site 3 mm distal to the first bifurcation of biceps femoris (hereinafter referred to as proximal transection site) (2) the site 3 mm distal to the proximal transection site (hereinafter referred to as distal transection site) The excised nerve segment with a length of 3 mm was confirmed to be completely cut at the two sites. The perineurium was sutured with nylon thread (10-0 black) at the proximal transection site and the distal transection site under a microscope. The remaining thread was used as a marker for finding the nerve transection site in the sacrifice of the mice. In order to reduce DMSO toxicity, a solution of 60 mg/mL zonisamide in 100% DMSO was prepared and the solution was diluted in olive oil to give a solution of 3 mg/mL zonisamide in 5% DMSO. The control solution (5% DMSO) or zonisamide (3 mg/mL×about 0.2 mL) at 30 mg/kg/day was administered to the stomach using a disposable probe needle (flexible type, Fuchigami) once a day for 1 to 8 weeks from the end of surgery until sacrifice. Myelin sheath formation in the sciatic nerve was analyzed in six mice in each group. One week after the sciatic nerve autologous transplantation, the sciatic nerve was transected at “the proximal transection site” and “the site 3 mm distal to the distal transection site” to excise a nerve segment with a length of 6 mm. Subsequently, the nerve segment was fixed in 2% paraformaldehyde/2.5% glutaraldehyde in 0.2 mol/L sodium cacodylate buffer pH 7.3 overnight, treated with 2% osmium tetroxide for 3 hours, and dehydrated in ethanol. After epon embedding, a semithin section (with a thickness of 1 μm) was cut at the position 0.7 mm distal to the distal transection site, stained with alkaline Toluidine blue (Sigma), and examined under a microscope (FSX100, Olympus). The number and area of myelinated axons in the sciatic nerve were manually measured using ImageJ software in a blinded fashion. Eight weeks after sciatic nerve autologous transplantation, the entire gastrocnemius muscle and a sciatic nerve segment between the distal transection site and the site 3 mm distal to the distal transection site were isolated for total RNA extraction. Similar sciatic nerve segment was also isolated from the hindlimb without transected sciatic nerve. The mRNA expression levels of Bdnf, Ngf, Ntf4, Ntrk1, Ntrk2, Map2, Mapt, Gap43, Chrne, Colq, and Rapsn were quantified in a manner similar to Example 5.

For `NS(=O)(=O)Cc1noc2ccccc12` [Zonisamide, 3-sulfamoylmethyl-1,2-benzisoxazole], the BMS score in experiment [1] (day 14 after surgery) came to 3.2±0.3. The molecule further returned a BMS score in experiment [1] (day 21 after surgery) of 3.2±0.4. Moreover, in experiment [1] (day 28 after surgery), the BMS score is recorded as 3.7±0.4. The “BMS score compared to the control group” value in experiment [1] (since day 14 after surgery) is “significantly higher”. In addition, in experiment [2], the “expression level of Bdnf” value was “unchanged”, the “gene expression level of Ngf” value is recorded as “increased”, the “gene expression level of Ntf4” value was “increased” and the “mRNA level of Gap43” value is “elevated”. Moreover, in experiment [2], the “mRNA level of Map2” value is given as “elevated”, the “mRNA level of Mapt” value is “elevated”, the “mRNA level of Ntrk1” value is given as “increased” and the “mRNA level of Ntrk2” value is on record as “increased”.
